Here are results for three compounds from US9700547B2, “Use of 6-hydroxy-2-pyridones and derivatives thereof for preparing a pharmaceutical composition that acts by inhibiting the human uridine phosphorylase enzyme” (UNIÃO BRASILEIRA DE EDUCAÇÃO E ASSISTÊNCIA, MANTENEDORA DA …, priority 2013, dated 2017).

One data set has as its target hUP1-R1P (Homo sapiens, UniProt Q16831). Kind of data set: isothermal titration microcalorimetry (ITC), enzyme complexed with product ribose-1-phosphate. The class given is binding. The method, then: (§1) For determining the thermodynamic parameters (enthalpy variation—ΔH, entropy variation—ΔS, and free energy variation of Gibbs—ΔG) were performed compounds binding essays to the enzyme in different conditions: free enzyme, complexed enzyme with the substrate Pi, and the complexed enzyme with the product ribose-1-phosphate (R1P). For such analyses, it was used isothermal titration microcalorimetry (ITC) where the equipment monitors the difference of transferred heat, between the reference cell and the sample cell, when bindings are formed or broken during the binding process. The data analysis achieved was performed through the model One Set of Sites and the determination of ΔG and the dissociation constant (KD) were through the equations (IV) and (V) below, respectively: ΔG=ΔH−TΔS (IV) KD=1/Ka (V)
In general terms: ITC needs no label: the signal is the heat of the interaction.

Data set [1] deals with myeloperoxidase (MPO) in initial portion of the intestine. The data set is described as follows: MPO analysis in repeated mucositis model. The format is in vivo. Conditions: 50 mg/kg orally of 8-8 h, starting 2 days before 5-FU and 2 further days with 5-FU. The method, then:
The last in vivo analysis was regarding the MPO. The MPO is a primary answer of inflammation, present in neutrophils, and for that it was analyzed which is the best day of euthanasia to check this primary answer. The treatment schema lasted 5 days, where the animals were divided into 2 groups with 10 animals in each (Group Saline and Group 5-FU). The 5-FU (50 mg/kg) was administrated using the intraperitoneal via, as well the Saline. The animals were put into euthanasia in 24 h, 48 h, 72 h, 96 h and 120 h after the administration (days 1-5) and the initial portion of the intestine was collected. It was verified that the best day for MPO quantification would be day 2 (48 h after 5-FU administration), such as represented in the FIG. 6, in which the statistical analysis was performed though one-way ANOVA followed by Bonferroni test. The lines represent the standard error while each column represents the mean of two animals of each group. *Significant difference regarding group Saline (*p<0.05).
The first experiment of mucositis was repeated, with 3 groups having 5 animals in each (Group Saline+Saline, Group Saline+5-FU and Group Compound c3+5-FU). […] The animals were euthanized with isoflurane and the initial portion of the intestine was analyzed. […]

The target in data set [2] is T1, Human Phosphorylase Uridine 1 (hUP1) (Homo sapiens, UniProt Q16831). The data set is described as follows: hUP1 enzymatic assay, inhibition at 1 μM (UV absorbance of uridine at 280 nm). Conditions: 1 μM compound, 37° C. The format is biochemical. The method, then:
(§2) The enzymatic activity of the hUP1 is performed through the enzymatic essay using one spectrophotometer UV/visible where the absorbance reduction of uridine in 280 nm, for 1 min and at 37° C. was monitored.
For determining which inhibitors would be selected for determining the inhibition constant (Ki), one cut point of 1 μM was stipulated, where only those compounds that would inhibit more than 60% of the initial activity of the enzyme would be selected for this type of analysis (Table 1). From all compounds tested, 7 molecules had its inhibition above 60% with the concentration of 1 μM (Compounds c1, c2, c3, c4, c6, c12, and c13). All essays described on this patent application were performed for these compounds and for benzil acyclo uridine (BAU), in order to perform a direct comparison of the results achieved with the better in vitro inhibitor of the hUP1 described (standard).

Data set [3] addresses T1, Human Phosphorylase Uridine 1 (hUP1). The data set is described as follows: Ki and inhibition type from substrate saturation curves, double-reciprocal analysis. The class given is biochemical. The following applies: for Inhibiting type for phosphate: substrate Pi; for Inhibition type for uridine: substrate uridine. The method, then:
as §2
For determining Ki for the selected inhibitors, we performed saturation curves where the concentration of one of the substrates is fixed next to the Km and the concentration of another, varied until the saturation in fixed-varying concentrations of each one of the inhibitors.
(I) v=VA/[Ka(1+I/Kii)+A(1+Kis)] (II) v=VA/[A(1+I/Kis)+Ka] (III)

In a further data set the test system is plasma uridine. The data set is described as follows: uridine concentration in animals' plasma by HPLC (mucositis model). The format is in vivo, female Wistar mouse. Conditions: compound orally, either 50 mg/kg or 150 mg/kg. The method, then: (§3) The test compound was administrated via oral, 30 minutes before administrating the chemotherapeutic 5-FU that was administrated via intraperitoneal. This treatment was followed for 5 days with once a day administrations. In the 5th treatment day, the animals were euthanized using one inhalational anesthetic (isoflurane) and the initial portion of the intestine (corresponding to jejunum and ileus) was collected for myeloperoxidase analysis (MPO) and histological analysis of the tissue, as well blood collect for quantification analysis of the uridine in the plasma. The animals were also followed-up regarding weight loss and diarrhea.
The determination of the uridine concentration in the animals' plasma as performed by HPLC, using as mobile phase acetic acid 0.1%. First, it was made a calibration curve using commercial uridine as standard (Sigma) in the concentrations of 0.625-1.25-2.5-5.0-10.0-20.0 μM in mice plasma to keep the same matrix where the samples ones are. After the calibration curve, the plasma samples were analyzed of each group and was one positive result was achieved. As was expected, there was an increase of 4.4 times in the uridine concentration in the animals' plasma that received the compound orally, either in the dose of 50 mg/kg or in the dose of 150 mg/kg (FIGS. 5A and 5B). […]

The subject of data set [4] is intestinal mucositis caused by 5-FU. The data set is described as follows: intestinal mucositis model caused by 5-FU (weight, diarrhea, villus histology). The class given is in vivo, female Wistar mouse. The method, then: as §3, with “The compound c3 was tested in in vivo for evaluating its protection regarding intestinal mucositis caused by 5-FU. The mucositis model was developed in female Wistar mouse (180-200 g) and the animals were divided into 5 groups with 4 animals in each group: Group 1: Saline+Saline Group 2: Compound c3 (150 mg/kg)+saline Group 3: Saline+5-FU (50 mg/kg) Group 4: Compound c3 (50 mg/kg)+5-FU (50 mg/kg) Group 5: Compound c3 (150 mg/kg)+5-FU (50 mg/kg) The test” for “The test”

The target in the next data set is hUP1-Pi (Homo sapiens, UniProt Q16831). Kind of data set: isothermal titration microcalorimetry (ITC), enzyme complexed with substrate Pi. The format is binding. The method, then:
as §1

In the next data set the target is hUP1 (Homo sapiens, UniProt Q16831). Kind of data set: isothermal titration microcalorimetry (ITC), free enzyme. The format is binding. The method, then:
as §1

Data set [5] concerns the target T1, Human Phosphorylase Uridine 1 (hUP1). Conditions: literature value, said to be confirmed by own experiments; read-out: constant inhibition for uridine described on the literature; cited from earlier work.
Where [6] appears, read: c3 50 or 150 mg/kg oral 30 min before 5-FU 50 mg/kg intraperitoneal, once a day, 5 days.

Bounds are passed on as bounds.

Sequence of hUP1-R1P (Q16831 whole entry): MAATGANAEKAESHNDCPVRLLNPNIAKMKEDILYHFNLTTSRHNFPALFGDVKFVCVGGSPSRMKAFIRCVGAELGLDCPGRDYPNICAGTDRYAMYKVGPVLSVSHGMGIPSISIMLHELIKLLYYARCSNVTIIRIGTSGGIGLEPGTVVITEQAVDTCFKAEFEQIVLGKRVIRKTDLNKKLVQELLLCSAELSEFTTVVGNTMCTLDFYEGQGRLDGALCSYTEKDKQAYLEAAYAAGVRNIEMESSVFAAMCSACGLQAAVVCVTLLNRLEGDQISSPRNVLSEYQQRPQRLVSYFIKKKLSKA
Sequence of hUP1-Pi (Q16831 whole entry): as above
Sequence of hUP1 (Q16831 whole entry): as above
T1 sequence (Q16831 whole entry): as above

In general, Kd refers to a measure of binding affinity in units of concentration. Usually inhibition stands for the drop in the measured response relative to a control, in per cent. `Cc1cc(O)[nH]c(=O)c1C#N` [Compound c3]: on hUP1-R1P (hUP1-R1P 50 μM), the Kd stood at 1.4 ± 0.341 µM, the “ΔG°” value is -8.3 ± 2.0 kcal/mol, the “ΔH°” value is -31 ± 1.2 kcal/mol and the “−TΔS (kcal/mol/deg)” value is reported as 22 ± 5.4 kcal/mol. At hUP1-R1P (hUP1-R1P 150 μM), binding was characterised by a dissociation constant (Kd) of 0.04 µM, the “ΔG°” value was -9.8 ± 1.4 kcal/mol, the “ΔH°” value is -21 ± 0.1 kcal/mol and the “−TΔS (kcal/mol/deg)” value was determined as 11 ± 1.5 kcal/mol. At hUP1-R1P (hUP1-R1P 200 μM), the Kd amounted to 0.02 µM, the “ΔG°” value is -11 ± 1.3 kcal/mol, the “ΔH°” value was -22 ± 0.1 kcal/mol and the “−TΔS (kcal/mol/deg)” value worked out at 11 ± 1.3 kcal/mol. Moreover, the “MPO, primary inflammation process” value in data set [1] is “not able to revert the primary inflammation process”. Moreover, in data set [2], the “Inhibition with 1 μM (%)” value was found to be 70% and the inhibition at 1 µM was greater than 60%. In [3], the “Inhibiting type for phosphate” value is recorded as “Uncompetitive” and the “Inhibition type for uridine” value is “Not competitive”. Moreover, the “increase in the uridine concentration in the animals' plasma” value in the data set on plasma uridine is 4.4 times. In addition, the “intestinal villus size (histological analysis)” value in [4] (both tested doses (50 and 150 mg/kg oral) + 5-FU 50 mg/kg intraperitoneal, 5 days) was “statistically equal to the group Saline and different from the group 5-FU”. Also, in data set [4] (setting [6]), the “protection from diarrhea caused by 5-FU” value is reported as “not able to avoid these side effects” and the “protection from weight loss caused by 5-FU” value was “not able to avoid these side effects”. Besides, on hUP1-Pi, binding was characterised by a dissociation constant (Kd) of 12 ± 1.4 µM, the “ΔG°” value is -6.9 ± 0.8 kcal/mol, the “ΔH°” value was -19 ± 1.3 kcal/mol and the “−TΔS (kcal/mol/deg)” value was 12 ± 1.4 kcal/mol/deg.
In the case of `O=c1[nH]cc(F)c(=O)[nH]1` [Compound 5-FU, 5-fluorouracil, reference compound], in data set [4] (5-FU 50 mg/kg intraperitoneal, once a day, all groups that received the chemotherapeutic), the diarrhea entry is “developed severe diarrhea”. Further, in data set [4] (5-FU 50 mg/kg intraperitoneal, once a day, with or without the compound, day 1 vs day 6), the weight loss entry is “had a weight loss and this was significant”. Also, the “intestinal villus (histological analysis)” value in data set [4] (group that received only 5-FU, 50 mg/kg intraperitoneal) was “villus totally damaged”.
Regarding `O=c1[nH]c(=O)n(COCCO)cc1Cc1ccccc1` [BAU, benzil acyclo uridine, reference compound], on hUP1-R1P (hUP1-R1P 50 μM), the Kd came out at 1.2 ± 0.244 µM, the “ΔG°” value was -8.2 ± 1.7 kcal/mol and the “ΔH°” value was -12 ± 0.3 kcal/mol. Moreover, on hUP1-R1P (hUP1-R1P 150 μM), the dissociation constant (Kd) worked out at 6.6 ± 0.898 µM, the “ΔG°” value was -7.3 ± 1.0 kcal/mol and the “ΔH°” value was -20 ± 0.7 kcal/mol. Also, in [3], the “Inhibiting type for phosphate” value is listed as “Not competitive” and the “Inhibition type for uridine” value was “Competitive”. At hUP1, binding was put at a Kd of 1.2 ± 0.15 µM, the “ΔG°” value was -8.4 ± 1.0 kcal/mol, the “ΔH°” value was -10 ± 0.1 kcal/mol and the “−TΔS (kcal/mol/deg)” value was determined as 1.5 ± 0.2 kcal/mol/deg. For the same compound, the Ki in data set [5] is 0.1 µM. Also, on hUP1-Pi, the affinity, expressed as Kd, was 1.4 ± 0.239 µM; the “ΔG°” value is -8.2 ± 1.4 kcal/mol; the “ΔH°” value is -13 ± 0.3 kcal/mol; the “−TΔS (kcal/mol/deg)” value came out at 4.6 ± 0.8 kcal/mol/deg.
